Source: patent US20250195482A1, “METHOD AND COMPOSITION FOR IMPROVING HEALTH OF HAIR FOLLICLES, SCALP OR HAIR OF MAMMALS” (NANJING NUTRABUILDING BIO-TECH CO., LTD., priority 2022, published 2025)

Experiments:
Type in all cases: cell-based
M. globosa = assay: Growth inhibition of M. globosa (optical density); conditions: 1000 μM DHB, 600 nm, 48 h shaking at 30° C., mDixon medium; control 4.1
Experimental: (§1) Growth inhibition of M. globosa, M. restricta, Propionibacterium acnes, Staphylococcus aureus and Staphylococcus epidermidis was tested using 50-ml tubes with 10 ml of mDixon medium. Cultures were inoculated to an optical density (OD) of 0.2, the above microorganisms were loaded into each culture dish, and challenged with test material (control and DHB with different concentrations: 0.001 μM, 0.01 μM, 0.1 μM, 1 μm, 10 μM, 100 μM and 1000 μM). After 48 h of shaking at 30° C., the OD was measured by spectrophotometer and recorded.

M. restricta = assay: Growth inhibition of M. restricta (optical density); conditions: 1000 μM DHB, 600 nm, 48 h shaking at 30° C., mDixon medium; control 6.5
Experimental: as §1

Propionibacterium acnes = assay: Growth inhibition of Propionibacterium acnes (optical density); conditions: 1000 μM DHB, 530 nm, 48 h shaking at 30° C.; control 2.6
Experimental: as §1

Staphylococcus aureus = assay: Growth inhibition of Staphylococcus aureus (optical density); conditions: 1000 μM DHB, 530 nm, 48 h shaking at 30° C.; control 2.1
Experimental: as §1

[1] = test system: Staphylococcus epidermidis; assay: Growth inhibition of Staphylococcus epidermidis (optical density); conditions: 1000 μM DHB, 530 nm, 48 h shaking at 30° C.; control 1.8
Experimental: as §1

Structure (SMILES): COc1ccc2c(c1OC)CN1CCc3cc4c(cc3C1=C2)OCO4 [DHB, Dihydroberberine]
- optical density of M. globosa (M. globosa): 0.2
- optical density of M. restricta (M. restricta): 1.1
- optical density of Propionibacterium acnes (Propionibacterium acnes): 0.9
- optical density of Staphylococcus aureus (Staphylococcus aureus): 0.3
- optical density of Staphylococcus epidermidis [1]: 0.3
